Reference: publication PMC2610488 (Journal of medicinal chemistry, 2008)
pIC50, pKi: −log10 of the molar value.

Legend:
HisG = conditions: competitive inhibitor for both substrates; cited from earlier work
[1] = target: M. tuberculosis HisG (ATP-PRTase) (Mycobacterium tuberculosis, UniProt P9WMN1); type: biochemical; conditions: read-out: inhibition of enzyme activity
M. smegmatis = experiment: Whole-cell assay, growth inhibition on agar plates; type: cell-based; conditions: 12 μg/ml, 4 days
E. coli HisG = conditions: E. coli enzyme; cited from earlier work
[2] = system: Arabidopsis thaliana HisG; conditions: cited from earlier work

Chain of M. tuberculosis HisG (ATP-PRTase) (P9WMN1 whole entry): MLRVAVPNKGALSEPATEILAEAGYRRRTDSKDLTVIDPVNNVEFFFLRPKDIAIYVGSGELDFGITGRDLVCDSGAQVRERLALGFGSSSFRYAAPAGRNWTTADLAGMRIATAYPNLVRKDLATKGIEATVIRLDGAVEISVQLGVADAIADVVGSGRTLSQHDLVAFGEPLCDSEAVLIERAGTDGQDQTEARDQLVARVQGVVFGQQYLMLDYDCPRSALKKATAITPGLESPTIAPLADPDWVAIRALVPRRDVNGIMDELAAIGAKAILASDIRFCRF

Compound: Nc1ncnc2c1ncn2[C@@H]1O[C@H](COP(=O)(O)O)[C@@H](O)[C@H]1O [AMP, adenosine monophosphate]
- pKi (HisG): 3.26

Compound: O=C(CSc1nnc(-c2ccccc2)c(-c2ccccc2)n1)Cc1nccs1 [Compound 4]
- inhibition at 10 µM [1]: > 50%

Compound: O=C(CC(NC(=O)c1ccccc1)c1ccccc1)Nc1nc2ccc([N+](=O)[O-])cc2s1 (stereo not shown) [Compound 6]
- inhibition at 10 µM [1]: > 50%

Compound: COc1ccc(COC(=O)C2=C(C)NC3=C(C(=O)CC(c4cccs4)C3)C2c2cccs2)cc1 (stereo not shown) [Compound 10]
- inhibition at 10 µM [1]: > 50%

Compound: O=[N+]([O-])c1ccc(Nc2cc(Nc3cccc(O)c3)c3nonc3c2[N+](=O)[O-])c(O)c1 [Compound 18]
- growth inhibition (M. smegmatis): significant growth inhibition

Compound: O=c1oc2ccccc2c(O)c1Cc1c(O)c2ccccc2oc1=O [dicoumarol]
- pKi (E. coli HisG): 4.22

Compound: di-(amino-naphthyl)-disulfide
- pIC50 [2]: 7.30
